Results from US20240358707A1, “INHIBITORS OF BRUTON'S TYROSINE KINASE” (Pharmacyclics LLC, priority 2006, published 2024).

Columns and labels:
DHL-6 cells = test: DHL-6 cell growth (Alamar Blue assay); format: cell-based
[1] = system: BCR-activated calcium flux in Ramos cells; test: BCR-induced calcium flux assay in Ramos cells; settings: Homo sapiens, read-out: Ramos Cell Ca Flux IC50
Btk = Btk (Homo sapiens (Human), UniProt Q06187); test: Btk acellular kinase assay (TR-FRET); format: biochemical; settings: relative to compound 4
Sequence of Btk (Q06187 whole entry): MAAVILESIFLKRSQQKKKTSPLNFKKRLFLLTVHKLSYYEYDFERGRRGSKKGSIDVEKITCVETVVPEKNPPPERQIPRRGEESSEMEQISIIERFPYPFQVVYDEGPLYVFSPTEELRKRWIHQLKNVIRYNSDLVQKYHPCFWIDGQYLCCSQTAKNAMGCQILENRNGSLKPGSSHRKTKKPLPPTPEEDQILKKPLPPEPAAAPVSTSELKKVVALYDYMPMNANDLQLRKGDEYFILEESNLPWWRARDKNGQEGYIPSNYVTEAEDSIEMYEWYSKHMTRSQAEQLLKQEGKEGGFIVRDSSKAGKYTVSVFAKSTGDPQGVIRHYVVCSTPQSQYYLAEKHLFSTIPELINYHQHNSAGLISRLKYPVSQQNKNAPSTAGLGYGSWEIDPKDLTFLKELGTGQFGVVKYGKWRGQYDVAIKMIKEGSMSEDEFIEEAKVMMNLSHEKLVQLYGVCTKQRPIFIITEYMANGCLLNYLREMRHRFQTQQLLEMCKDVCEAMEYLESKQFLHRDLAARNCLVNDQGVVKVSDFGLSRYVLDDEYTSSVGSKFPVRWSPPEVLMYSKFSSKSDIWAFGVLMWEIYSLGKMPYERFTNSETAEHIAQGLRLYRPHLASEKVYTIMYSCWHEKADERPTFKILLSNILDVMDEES

Row | SMILES | IC50 [1] [nM] | also measured
1 | CN(C)C/C=C/C(=O)N1CCC[C@@H](n2nc(-c3ccc(Oc4ccccc4)cc3)c3c(N)ncnc32)C1 [Compound 15, (E)-1-(3-(4-amino-3-(4-phenoxyphenyl)-1H-pyrazolo[3,4-d]pyrimidin-1-yl)piperidin-1-yl)-4-(dimethylamino)but-2-en-1-one] | 36 | Growth of DHL-6 cells (DHL-6 cells; 24 h treatment): inhibits growth; Growth of DHL-6 cells (DHL-6 cells; 48 h treatment): inhibits growth
2 | C=CC(=O)N[C@H]1CC[C@@H](n2nc(-c3ccc(Oc4ccccc4)cc3)c3c(N)ncnc32)CC1 [Compound 10, N-((1s,4s)-4-(4-amino-3-(4-phenoxyphenyl)-1H-pyrazolo[3,4-d]pyrimidin-1-yl)cyclohexyl)acrylamide] | 3 | 
3 | C=CC(=O)N1CC[C@H](n2nc(-c3ccc(Oc4ccccc4)cc3)c3c(N)ncnc32)C1 [Compound 12, 1-((S)-3-(4-amino-3-(4-phenoxyphenyl)-1H-pyrazolo[3,4-d]pyrimidin-1-yl)pyrrolidin-1-yl)prop-2-en-1-one] | 90 | 
4 | C/C=C/C(=O)N1CCCC(n2nc(-c3ccc(Oc4ccccc4)cc3)c3c(N)ncnc32)C1 (stereo not drawn) [Compound 5, (E)-1-(3-(4-amino-3-(4-phenoxyphenyl)-1H-pyrazolo[3,4-d]pyrimidin-1-yl)piperidin-1-yl)but-2-en-1-one] | 89 | Fold less potent than compound 4 (Btk) (Btk): 28 fold
5 | C=CS(=O)(=O)N1CCCC(n2nc(-c3ccc(Oc4ccccc4)cc3)c3c(N)ncnc32)C1 (stereo not drawn) [Compound 6, 1-(3-(4-amino-3-(4-phenoxyphenyl)-1H-pyrazolo[3,4-d]pyrimidin-1-yl)piperidin-1-yl)sulfonylethene] | 92 | 
6 | C=CC(=O)N1CCC(n2nc(-c3ccc(Oc4ccccc4)cc3)c3c(N)ncnc32)CC1 [Compound 9, 1-(4-(4-amino-3-(4-phenoxyphenyl)-1H-pyrazolo[3,4-d]pyrimidin-1-yl)piperidin-1-yl)prop-2-en-1-one] | 48 | 
7 | C#CC(=O)N1CCCC(n2nc(-c3ccc(Oc4ccccc4)cc3)c3c(N)ncnc32)C1 (stereo not drawn) [Compound 8, 1-(3-(4-amino-3-(4-phenoxyphenyl)-1H-pyrazolo[3,4-d]pyrimidin-1-yl)piperidin-1-yl)prop-2-yn-1-one] | 9 | 
8 | Nc1ncnc2c1c(-c1ccc(Oc3ccccc3)cc1)nn2C1CCCN(C(=O)CCl)C1 (stereo not drawn) [Compound 7] | 9 | 
9 | C=CC(=O)N1CC[C@@H](n2nc(-c3ccc(Oc4ccccc4)cc3)c3c(N)ncnc32)C1 [Compound 11, 1-((R)-3-(4-amino-3-(4-phenoxyphenyl)-1H-pyrazolo[3,4-d]pyrimidin-1-yl)pyrrolidin-1-yl)prop-2-en-1-one] | 24 | 
